The record followed here is ChEMBL document CHEMBL5150030, “Enhancing the Safety and Efficacy of PSMA-Based Small-Molecule Drug Conjugates by Linker Stabilization and Conjugation to Transthyretin Binding Ligand” (J Med Chem, 2022).

For data set [1], the system named is LNCaP. Nature of the data set: Cytotoxicity against human LNCaP cells assessed as reduction in cell viability incubated for 72 hrs in presence of TTR by CellTiter-96 assay. Type of data set: functional, cell-based.
Data set [2] concerns DU-145. Nature of the data set: Cytotoxicity against human DU-145 cells assessed as reduction in cell viability incubated for 72 hrs by CellTiter-96 assay. Type of data set: functional, cell-based. To be noted: DU-145, 72 h.
Data set [3] is described as follows: Toxicity in CD-1 mouse assessed as body weight loss at 0.4 mg/kg,ip administrated upto 20 days for every 5 days. Type of data set: organism-based. To be noted: in vivo, 480 h, time < 20 day.
Data set [4] has as its system DU-145. Nature of the data set: Cytotoxicity against human DU-145 cells assessed as reduction in cell viability incubated for 72 hrs in presence of TTR by CellTiter-96 assay. Type of data set: functional, cell-based. To be noted: DU-145, 72 h.
In data set [5] the test system is HeLa. Nature of the data set: Cytotoxicity against human HeLa cells assessed as reduction in cell viability incubated for 72 hrs by CellTiter-96 assay. Type of data set: functional, cell-based.
Data set [6] has as its system LNCaP. The experiment in a line: Cytotoxicity against human LNCaP cells assessed as reduction in cell viability incubated for 72 hrs by CellTiter-96 assay. Type of data set: functional, cell-based.
Data set [7] relates to HeLa. Nature of the data set: Cytotoxicity against human HeLa cells assessed as reduction in cell viability incubated for 72 hrs in presence of TTR by CellTiter-96 assay. Type of data set: functional, cell-based.
Data set [8] can be described thus: Toxicity in mouse assessed as reduction in body weight at 20 mg/kg,ip measured for 21 days by every 3 days. Type of data set: organism-based. To be noted: in vivo, 504 h, time 21 day.
The nature of data set [9]: Toxicity in mouse xenografted with human LNCaP cells assessed as change in body weight at 10 mg/kg,ip administrated upto 35 days for every 5 days. Type of data set: organism-based. To be noted: in vivo, 840 h, time < 35 day. On the technique in general: In xenograft studies the graft and the host belong to different species.
A short description of data set [10]: Toxicity in mouse assessed as reduction in body weight at 40 mg/kg,ip measured upto 21 days for every 3 days. Type of data set: organism-based. To be noted: in vivo, 504 h, time < 21 day.
The target in data set [11] is T1, Transthyretin (Homo sapiens, UniProt P02766). Nature of the data set: Binding affinity to human TTR incubated for 20 mins by fluorescence polarization assay. In general terms: Fluorescence polarisation rises when a labelled molecule tumbles more slowly, as on binding a larger partner.
For data set [12], the target named is T1, Transthyretin. Nature of the data set: Binding affinity to human serum TTR assessed as target occupancy incubated for 6 hrs by fluorescence polarization assay.
Data set [13] is described as follows: Stability of compound in PBS at 37 degreeC incubated for 24 hrs by RP-HPLC analysis. Type of data set: physicochemical. To be noted: buffer.
A short description of data set [14]: Toxicity in mouse assessed as increase in body weight at 6.2 mg/kg,ip measured upto 21 days for every 3 days. Type of data set: organism-based. To be noted: in vivo, 504 h, time < 21 day.
Data set [15] is described as follows: Toxicity in mouse assessed as maximum tolerated dose administered intraperitoneally measured upto 21 days for every 3 days. To be noted: in vivo, route ip, time < 21 day.
Data set [16] is described as follows: Drug metabolism in human liver assessed as cathepsin B mediated hydrolysis MMAE metabolite formation measured after 15 mins by HPLC/LC-MS/MS analysis. To be noted: 0.25 h. Type of data set: ADME, tissue-based.
The nature of data set [17]: Toxicity in CD-1 mouse assessed as body weight loss at 2.5 mg/kg,ip administrated upto 20 days for every 5 days. Type of data set: organism-based. To be noted: in vivo, 480 h, time < 20 day.
A short description of data set [18]: Stability of compound in mouse serum at 37 degreeC incubated for 24 hrs by RP-HPLC analysis. To be noted: read-out: Stability. Type of data set: ADME, cell-free.
Data set [19] in a line: Stability of compound in human serum at 37 degreeC incubated for 24 hrs by RP-HPLC analysis. Type of data set: ADME, cell-free.
A short description of data set [20]: Drug concentration in CD-1 mouse at 2.5 mg/kg,ip measured upto 24 hrs by LC-MS/MS analysis. Type of data set: ADME, organism-based. To be noted: in vivo.
Data set [21] is described as follows: Drug metabolism in human liver assessed as cathepsin B mediated hydrolysis MMAE metabolite formation measured after 30 mins by HPLC/LC-MS/MS analysis. Type of data set: ADME, tissue-based. To be noted: 0.5 h.
Data set [22] has as its target Transthyretin (Mus musculus) (UniProt P07309). Nature of the data set: Binding affinity to mouse serum TTR assessed as target occupancy incubated for 1 hrs by fluorescence polarization assay.
Data set [23] can be described thus: Toxicity in mouse xenografted with human LNCaP cells assessed as mouse survival time at 3.1 mg/kg,ip administrated upto 35 days for every 5 days. Type of data set: organism-based. To be noted: in vivo, 840 h, time < 35 day.
Data set [24] in a line: Drug concentration in CD-1 mouse at 3 mg/kg,ip measured upto 24 hrs by LC-MS/MS analysis. To be noted: in vivo. Type of data set: ADME, organism-based.
Data set [25] deals with LNCaP. The experiment in a line: Antitumor activity against human LNCaP cells xenografted mouse assessed as reduction in tumor growth at 3.1 mg/kg,ip administrated upto 35 days for every 5 days. Type of data set: functional, organism-based. To be noted: time <= 35.0 day.
A short description of data set [26]: Toxicity in CD-1 mouse assessed as body weight loss at 3.1 mg/kg,ip administrated upto 20 days for every 5 days. Type of data set: organism-based. To be noted: in vivo, 480 h, time < 20 day.
Data set [27] in a line: Toxicity in mouse xenografted with human LNCaP cells assessed as increase in body weight at 3.1 mg/kg,ip administrated upto 35 days for every 5 days. To be noted: in vivo, 840 h, time < 35 day. Type of data set: organism-based.
Data set [28] has as its system LNCaP. Nature of the data set: Antitumor activity against human LNCaP cells xenografted mouse assessed as reduction in tumor relapse at 3.1 mg/kg,ip administrated upto 35 days for every 5 days. Type of data set: functional, organism-based. To be noted: time <= 35.0 day.

Calls of active or inactive are those of the source. No cut-off for these calls is given here. Square brackets hold non-standard residues; d marks the D form. Peptide text beside a SMILES is read from it. * marks the point of attachment. Dolaproine = CO[C@@H]([C@@H]1CCCN1)[C@@H](C)C(=O)O; Dil = CC[C@H](C)[C@H](NC)[C@@H](CC(=O)O)OC; X1 = C[C@@H](N*)[C@@H](O)c1ccccc1; NMeV = CN[C@H](C(=O)O)C(C)C

In general, IC50 refers to the concentration needed to halve the response being measured. On to `CC[C@H](C)[C@@H]([C@@H](CC(=O)N1CCC[C@H]1[C@H](OC)[C@@H](C)C(=O)N[C@H](C)[C@@H](O)c1ccccc1)OC)N(C)C(=O)[C@@H](NC(=O)[C@@H](NC)C(C)C)C(C)C` (H-[NMeV]V[Dil][Dolaproine]-X1), for which the IC50 in the data set with LNCaP [1] was found to be 0.71 nM; in the data set on DU-145 [2] it was 0.55 nM; with DU-145 [4], 0.62 nM; with HeLa [5] it was 1.1 nM; with LNCaP [6], 0.79 nM; in the data set with HeLa [7] it was 1 nM. The Activity result in data set [3] is on record as “Toxic”.

As for `CC(=O)O[C@@]12CO[C@@H]1C[C@H](O)[C@@]1(C)C(=O)[C@H](O)C3=C(C)[C@@H](OC(=O)[C@H](O)[C@@H](NC(=O)OC(C)(C)C)c4ccccc4)C[C@@](O)([C@@H](OC(=O)c4ccccc4)[C@H]21)C3(C)C` [DOCETAXEL ANHYDROUS], the values for the Activity entry in data set [8], in data set [9] and in [10] were “Toxic”, “Non-Toxic” and “Toxic”, respectively.

Broadly, the Kd is the free concentration of one partner at which half of the binding sites on the other are occupied at equilibrium, for simple one-to-one binding. The low end stands for a tighter complex, the high end for a looser complex. For the molecule `Cc1n[nH]c(C)c1CCCOc1cc(OCCCCCCNCCOCCOCCN=[N+]=[N-])cc(C(=O)O)c1`, the equilibrium dissociation constant (Kd) at Transthyretin [11] was determined as 74.3 nM. In addition, the Activity on Transthyretin [12] amounted to 80.7%.

As usually defined, the MTD is the largest dose that counted as tolerated. As to `C#CCC(NC(=O)CCSC1CC(=O)N(CCCCCC(=O)N[C@@H](CCC(=O)O)C(=O)N[C@H](C(=O)N[C@@H](CCCNC(N)=O)C(=O)Nc2ccc(COC(=O)N(C)[C@H](C(=O)N[C@H](C(=O)N(C)[C@@H]([C@@H](C)CC)[C@@H](CC(=O)N3CCC[C@H]3[C@H](OC)[C@@H](C)C(=O)N[C@H](C)[C@@H](O)c3ccccc3)OC)C(C)C)C(C)C)cc2)C(C)C)C1=O)C(=O)NCCCCCC(=O)NCCCC[C@H](NC(=O)N[C@@H](CCC(=O)O)C(=O)O)C(=O)O` (some centres not stated), the IC50 in the data set on LNCaP [1] was determined as 0.81 nM; with DU-145 [2], 1050 nM; in the data set with DU-145 [4], 1020 nM; with HeLa [5], 551 nM; in the data set with LNCaP [6] it was 0.83 nM; in the data set on HeLa [7], 525 nM. The Stability entry in data set [13] and in data set [19] was “Stable” in each case. Also, the Activity result is “Toxic” in [14] and “Non-Toxic” in data set [17]. The MTD at 504 h in [15] came out at 5 mg/kg. Also, the Drug metabolism result in data set [16] was “Metabolite_Detected”. Further, in data set [18], the remaining at 24 h came to 64.1%. Moreover, the Drug uptake result in data set [20] is “Active”.

In the case of `O=C(O)c1ccc2nc(-c3cc(Cl)cc(Cl)c3)oc2c1`, the Activity on Transthyretin [12] was 49.5%.

`CC[C@H](C)[C@@H]([C@@H](CC(=O)N1CCC[C@H]1[C@H](OC)[C@@H](C)C(=O)N[C@H](C)[C@@H](O)c1ccccc1)OC)N(C)C(=O)[C@@H](NC(=O)[C@H](C(C)C)N(C)C(=O)OCc1ccc(NC(=O)[C@H](CCCNC(N)=O)NC(=O)[C@@H](NC(=O)[C@H](CCC(=O)O)NC(=O)CCCCCN2C(=O)CC(SCCC(=O)NC(Cc3cn(CCOCCOCCNCCCCCCOc4cc(OCCCc5c(C)n[nH]c5C)cc(C(=O)O)c4)nn3)C(=O)NCCCCCC(=O)NCCCC[C@H](NC(=O)N[C@@H](CCC(=O)O)C(=O)O)C(=O)O)C2=O)C(C)C)cc1)C(C)C` (some centres not stated) had a Kd at Transthyretin [11] of 448 nM. The IC50 came to 1.19 nM with LNCaP [1]; 421 nM in the data set with DU-145 [2]; 1250 nM in the data set on DU-145 [4]; 259 nM with HeLa [5]; 1.02 nM in the data set on LNCaP [6]; 816 nM in the data set with HeLa [7]. The Drug metabolism result in data set [21] is listed as “Metabolite_Detected”. Also, the Stability result in [13] and in data set [19] was “Stable” throughout. The result (in [22]; with LNCaP [25]; in the data set with LNCaP [28]) was Active. Also, the Survival in [23] was determined as 100 days. The Activity at Transthyretin [12] was 67.5%; in data set [26], “Non-Toxic”; in data set [27], “Toxic”. The Drug uptake result in data set [24] was “Active”. For the same molecule, the MTD at 504 h in data set [15] is 3.1 mg/kg. Moreover, in data set [18], the remaining at 24 h amounted to 71.3%.
